Active and inactive are the calls of the source. The rule behind the calls is not given here.
How the values were obtained:
[1] = Toxicity in Balb/c mouse wound infection model infected with Pseudomonas aeruginosa PAO1 assessed as morphological changes in spleen at 0.0025 mg/ml,TOP for 3 days in presence of N-hydroxy-7-((6-methyl-2-oxo-2H-chromen-4-yl)oxy)heptanamide by H and E staining based analysis; assay type: tissue-based; settings: in vivo, topical_or_ocular, 72 h, time 3 day
[2] = Toxicity in Balb/c mouse wound infection model infected with Pseudomonas aeruginosa PAO1 assessed as morphological changes in lung at 0.0025 to 0.5 mg/ml,TOP for 3 days by H and E staining based analysis; assay type: tissue-based; settings: in vivo, topical_or_ocular, 72 h, dose 0.0025-0.5 mg/ml, time 3 day
[3] = Toxicity in Balb/c mouse wound infection model infected with Pseudomonas aeruginosa PAO1 assessed as morphological changes in kidney at 0.0025 mg/ml,TOP for 3 days in presence of N-hydroxy-7-((6-methyl-2-oxo-2H-chromen-4-yl)oxy)heptanamide by H and E staining based analysis; assay type: tissue-based; settings: in vivo, topical_or_ocular, 72 h, time 3 day
[4] = Toxicity in Balb/c mouse wound infection model infected with Pseudomonas aeruginosa PAO1 assessed as body weight change at 0.0025 to 0.5 mg/ml,TOP for 3 days; settings: in vivo, topical_or_ocular, 72 h, dose 0.0025-0.5 mg/ml, time 3 day
[5] = Toxicity in Balb/c mouse wound infection model infected with Pseudomonas aeruginosa PAO1 assessed as body weight change at 0.0025 mg/ml,TOP for 3 days in presence of N-hydroxy-7-((6-methyl-2-oxo-2H-chromen-4-yl)oxy)heptanamide; settings: in vivo, topical_or_ocular, 72 h, time 3 day
[6] = Toxicity in Balb/c mouse wound infection model infected with Pseudomonas aeruginosa PAO1 assessed as morphological changes in heart at 0.0025 mg/ml,TOP for 3 days in presence of N-hydroxy-7-((6-methyl-2-oxo-2H-chromen-4-yl)oxy)heptanamide by H and E staining based analysis; assay type: tissue-based; settings: in vivo, topical_or_ocular, 72 h, time 3 day
Pseudomonas aeruginosa [7] = assay: In vivo antibacterial activity against Pseudomonas aeruginosa PAO1 infected in Balb/c mouse wound infection model assessed as reduction in bacterial survival rate at wounded area at 0.5 mg/ml,TOP QD for 3 days by CFU assay; assay type: functional; settings: time 3 day
[8] = Toxicity in Balb/c mouse wound infection model infected with Pseudomonas aeruginosa PAO1 assessed as morphological changes in lung at 0.0025 mg/ml,TOP for 3 days in presence of N-hydroxy-7-((6-methyl-2-oxo-2H-chromen-4-yl)oxy)heptanamide by H and E staining based analysis; assay type: tissue-based; settings: in vivo, topical_or_ocular, 72 h, time 3 day
[9] = Toxicity in Balb/c mouse wound infection model infected with Pseudomonas aeruginosa PAO1 assessed as morphological changes in liver at 0.0025 mg/ml,TOP for 3 days in presence of N-hydroxy-7-((6-methyl-2-oxo-2H-chromen-4-yl)oxy)heptanamide by H and E staining based analysis; assay type: tissue-based; settings: in vivo, topical_or_ocular, 72 h, time 3 day
[10] = Toxicity in Balb/c mouse wound infection model infected with Pseudomonas aeruginosa PAO1 assessed as morphological changes in spleen at 0.0025 to 0.5 mg/ml,TOP for 3 days by H and E staining based analysis; assay type: tissue-based; settings: in vivo, topical_or_ocular, 72 h, dose 0.0025-0.5 mg/ml, time 3 day
[11] = Toxicity in Balb/c mouse wound infection model infected with Pseudomonas aeruginosa PAO1 assessed as morphological changes in liver at 0.0025 to 0.5 mg/ml,TOP for 3 days by H and E staining based analysis; assay type: tissue-based; settings: in vivo, topical_or_ocular, 72 h, dose 0.0025-0.5 mg/ml, time 3 day
Pseudomonas aeruginosa [12] = assay: In vivo antibacterial activity against Pseudomonas aeruginosa PAO1 infected in Balb/c mouse wound infection model assessed as healing degree of wound at 0.5 mg/ml,TOP QD for 3 days and measured after 9 days; assay type: functional, organism-based; settings: time 3.0 day
[13] = Toxicity in Balb/c mouse wound infection model infected with Pseudomonas aeruginosa PAO1 assessed as morphological changes in kidney at 0.0025 to 0.5 mg/ml,TOP for 3 days by H and E staining based analysis; assay type: tissue-based; settings: in vivo, topical_or_ocular, 72 h, dose 0.0025-0.5 mg/ml, time 3 day
[14] = Toxicity in Balb/c mouse wound infection model infected with Pseudomonas aeruginosa PAO1 assessed as morphological changes in heart at 0.0025 to 0.5 mg/ml,TOP for 3 days by H and E staining based analysis; assay type: tissue-based; settings: in vivo, topical_or_ocular, 72 h, dose 0.0025-0.5 mg/ml, time 3 day
Pseudomonas aeruginosa [15] = assay: Antibacterial activity against Pseudomonas aeruginosa PAO1 in ABTGC medium assessed as bacterial growth inhibition incubated for 16 hrs; assay type: functional
Pseudomonas aeruginosa [16] = assay: Antibiofilm activity against Pseudomonas aeruginosa PAO1 in ABTGC medium assessed as inhibition of biofilm formation incubated for 24 hrs by crystal violet staining based absorbance assay; assay type: functional, organism-based; settings: PAO1, 24 h
Pseudomonas aeruginosa [17] = assay: In vivo antibacterial activity against Pseudomonas aeruginosa PAO1 infected in Balb/c mouse wound infection model assessed as healing degree of wound at 0.005 mg/ml,TOP QD for 3 days and measured after 9 days; assay type: functional, organism-based; settings: time 3.0 day
Pseudomonas aeruginosa [18] = assay: Inhibition of iron homeostasis in Pseudomonas aeruginosa PAO1 in ABTGC medium assessed as decrease in iron level at 1.25 to 20 uM in presence of FeCl3 by fluorescence based microplate reader analysis (Rvb= 9.6+/-2.00 microM); assay type: functional; settings: dose 1.25-20 µM
[19] = Metal chelating activity assessed as Fe3+-compound complex formation assessed as pFe(III) value by fluorescence method

Row | Compound | MIC (Pseudomonas aeruginosa [15]) | IC50 (Pseudomonas aeruginosa [16]) | further results
1 | NC[C@H]1O[C@H](O[C@H]2[C@H](O)[C@@H](O[C@H]3O[C@H](CO)[C@@H](O)[C@H](N)[C@H]3O)[C@H](N)C[C@@H]2N)[C@H](N)C[C@@H]1O [TOBRAMYCIN] | – | – | Activity [1]: Non-Toxic; Activity [2]: Non-Toxic; Activity [3]: Non-Toxic; Activity [4]: Non-Toxic; Activity [5]: Non-Toxic; Activity [6]: Non-Toxic; Activity (Pseudomonas aeruginosa [7]): 5.77%; Activity [8]: Non-Toxic; Activity [9]: Non-Toxic; Activity [10]: Non-Toxic; Activity [11]: Non-Toxic; Activity (Pseudomonas aeruginosa [12]): Active; Activity [13]: Non-Toxic; Activity [14]: Non-Toxic
2 | COc1ccc2c(OCCCCCC(=O)NO)cc(=O)oc2c1 | > 256 µM | 9.37 µM | –
3 | Cc1ccc(OCCCCCCC(=O)NO)cc1 | > 256 µM | > 100 µM | –
4 | Cc1ccc2c(OCCCCC(=O)NO)cc(=O)oc2c1 | > 256 µM | > 100 µM | –
5 | CC[C@H]1OC(=O)[C@H](C)[C@@H](O[C@H]2C[C@@](C)(OC)[C@@H](O)[C@H](C)O2)[C@H](C)[C@@H](O[C@@H]2O[C@H](C)C[C@H](N(C)C)[C@H]2O)[C@](C)(O)C[C@@H](C)CN(C)[C@H](C)[C@@H](O)[C@]1(C)O [AZITHROMYCIN] | – | 17.3 µM | –
6 | COc1ccc2c(OCCCCC(=O)NO)cc(=O)oc2c1 | > 256 µM | > 100 µM | –
7 | COc1ccc2oc(=O)cc(OCCCCCC(=O)NO)c2c1 | > 256 µM | > 100 µM | –
8 | O=C(CCCCCCOc1cc(=O)oc2ccc(F)cc12)NO | > 256 µM | 26.4 µM | –
9 | O=C(CCCOc1cc(=O)oc2ccccc12)NO | > 256 µM | 88.4 µM | –
10 | O=C(CCCCOc1cc(=O)oc2ccc(F)cc12)NO | > 256 µM | 9.8 µM | –
11 | O=C(CCCOc1cc(=O)oc2cc(Cl)ccc12)NO | > 256 µM | 88.4 µM | –
12 | O=C(CCCCCOc1cc(=O)oc2cc(Cl)ccc12)NO | > 256 µM | > 100 µM | –
13 | Cc1ccc2c(OCCCCCC(=O)NO)cc(=O)oc2c1 | > 256 µM | > 100 µM | –
14 | CCCCCCCCOc1cc(=O)oc2ccc(C)cc12 | > 256 µM | > 100 µM | –
15 | COc1ccc2oc(=O)cc(OCCCC(=O)NO)c2c1 | > 256 µM | > 100 µM | –
16 | Cc1ccc2oc(=O)cc(NCCCCC(=O)NO)c2c1 | > 256 µM | > 100 µM | –
17 | Cc1ccc2oc(=O)cc(OCCCCCCCC(=O)NO)c2c1 | > 256 µM | > 100 µM | –
18 | O=C(CCCCOc1cc(=O)oc2ccc(Cl)cc12)NO | > 256 µM | > 100 µM | –
19 | CCCCCCCOc1cc(=O)oc2ccc(C)cc12 | > 256 µM | > 100 µM | –
20 | Cc1ccc2oc(=O)cc(OCc3ccc(C(=O)NO)cc3)c2c1 | > 256 µM | > 100 µM | –
21 | Cc1ccc2oc(=O)cc(OCCCCCC(=O)NO)c2c1 | > 256 µM | 12.3 µM | –
22 | CCCCCCOc1cc(=O)oc2ccc(C)cc12 | > 256 µM | > 100 µM | –
23 | COc1ccc2oc(=O)cc(OCCCCCCC(=O)NO)c2c1 | > 256 µM | > 100 µM | –
24 | O=C(CCCCCOc1cc(=O)oc2ccc(Br)cc12)NO | > 256 µM | > 100 µM | –
25 | O=C(CCCCCCOc1ccccc1)NO | > 256 µM | > 100 µM | –
26 | O=C(CCCCCOc1cc(=O)oc2ccc(F)cc12)NO | > 256 µM | 58.6 µM | –
27 | O=C(CCCCCCOc1cc(=O)oc2ccc(Cl)cc12)NO | > 256 µM | > 100 µM | –

Row | Compound | MIC (Pseudomonas aeruginosa [15]) | IC50 (Pseudomonas aeruginosa [16]) | further results
28 | Cc1ccc2oc(=O)cc(OCCCCCCCCC(=O)NO)c2c1 | > 256 µM | 20.4 µM | –
29 | O=C(CCCOc1cc(=O)oc2ccc(F)cc12)NO | > 256 µM | > 100 µM | –
30 | COc1ccc2c(OCCCC(=O)NO)cc(=O)oc2c1 | > 256 µM | > 100 µM | –
31 | O=C(O)c1cn(C2CC2)c2cc(N3CCNCC3)c(F)cc2c1=O | – | – | Activity (Pseudomonas aeruginosa [17]): Active
32 | Cc1c(O)c(=O)ccn1C [DEFERIPRONE] | – | – | Activity (Pseudomonas aeruginosa [18]): 7.74 µM; pFe(III) [19]: 20.1
33 | Cc1ccc2oc(=O)cc(NCCCCCC(=O)NO)c2c1 | > 256 µM | > 100 µM | –
34 | O=C(CCCOc1cc(=O)oc2ccc(Br)cc12)NO | > 256 µM | 70 µM | –
35 | Cc1ccc2oc(=O)cc(OCCCC(=O)NO)c2c1 | > 256 µM | 77.4 µM | –
36 | O=C(CCCCCCOc1cc(=O)oc2cc(Cl)ccc12)NO | > 256 µM | > 100 µM | –
37 | O=C(CCCCCOc1cc(=O)oc2ccccc12)NO | > 256 µM | 69.7 µM | –
38 | Cc1ccc2oc(=O)cc(NCCCC(=O)NO)c2c1 | > 256 µM | > 100 µM | –
39 | O=C(CCCCCCOc1cc(=O)oc2ccccc12)NO | > 256 µM | 69.2 µM | –
40 | Cc1ccccc1OCCCCCCC(=O)NO | > 256 µM | > 100 µM | –
41 | Cc1cccc(OCCCCCCC(=O)NO)c1 | > 256 µM | > 100 µM | –
42 | O=C(CCCCCCOc1cc(=O)oc2ccc(Br)cc12)NO | > 256 µM | 44.4 µM | –
43 | O=C(CCCOc1cc(=O)oc2ccc(Cl)cc12)NO | > 256 µM | > 100 µM | –
44 | O=C(CCCCOc1cc(=O)oc2ccc(Br)cc12)NO | > 256 µM | 29.7 µM | –
45 | COc1ccc2c(OCCCCCCC(=O)NO)cc(=O)oc2c1 | > 256 µM | 4.74 µM | –
46 | Cc1ccc2c(OCCCC(=O)NO)cc(=O)oc2c1 | > 256 µM | > 100 µM | –
47 | COc1ccc2oc(=O)cc(OCCCCC(=O)NO)c2c1 | > 256 µM | > 100 µM | –
48 | Cc1ccc2c(OCCCCCCC(=O)NO)cc(=O)oc2c1 | > 256 µM | > 100 µM | –
49 | O=C(CCCCCOc1cc(=O)oc2ccc(Cl)cc12)NO | > 256 µM | > 100 µM | –
50 | Cc1ccc2oc(=O)cc(OCCCCC(=O)NO)c2c1 | > 256 µM | 12.8 µM | –
51 | O=C(CCCCOc1cc(=O)oc2cc(Cl)ccc12)NO | > 256 µM | 42.3 µM | –
52 | Cc1ccc2oc(=O)cc(NCCCCCCC(=O)NO)c2c1 | > 256 µM | > 100 µM | –
53 | O=C(CCCCOc1cc(=O)oc2ccccc12)NO | > 256 µM | 42.3 µM | –

— ChEMBL document CHEMBL5370649, “Novel Coumarin Derivatives Inhibit the Quorum Sensing System and Iron Homeostasis as Antibacterial Synergists against Pseudomonas aeruginosa” (J Med Chem, 2023)
